Assays:
Assay in all cases: relative viability (nuclei count vs DMSO), 5 days (fraction); higher = more cells survive
NCI-H727 = tested on: NCI-H727
Summary of the method: (§1)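 Lung cancer cell lines, seeded in 1536-well plates, were treated the following day by pin tool with a single drug or with five library-drug doses (not always all listed) in √10 steps on top of a fixed anchor-drug dose. Cells were fixed and nuclei stained in one step after 5 days, and nuclei were counted. Relative viability is the nuclei count for treated wells divided by that for vehicle wells, reported as medians of duplicate plates.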

NCI-H1944 = tested on: NCI-H1944
Summary of the method: as §1

NCI-H2087 = tested on: NCI-H2087
Summary of the method: as §1

NCI-H1792 = tested on: NCI-H1792
Summary of the method: as §1

BEN = tested on: BEN
Summary of the method: as §1

SK-LU-1 = tested on: SK-LU-1
Summary of the method: as §1

RERF-LC-KJ = tested on: RERF-LC-KJ
Summary of the method: as §1

NCI-H647 = tested on: NCI-H647
Summary of the method: as §1

CAL-12T = tested on: CAL-12T
Summary of the method: as §1

NCI-H1793 = tested on: NCI-H1793
Summary of the method: as §1

NCI-H2405 = tested on: NCI-H2405
Summary of the method: as §1

HCC-827 = tested on: HCC-827
Summary of the method: as §1

NCI-H2228 = tested on: NCI-H2228
Summary of the method: as §1

NCI-H1650 = tested on: NCI-H1650
Summary of the method: as §1

NCI-H1437 = tested on: NCI-H1437
Summary of the method: as §1

LXF-289 = tested on: LXF-289
Summary of the method: as §1

NCI-H1395 = tested on: NCI-H1395
Summary of the method: as §1

LCLC-97TM1 = tested on: LCLC-97TM1
Summary of the method: as §1

201T = tested on: 201T
Summary of the method: as §1

NCI-H3122 = tested on: NCI-H3122
Summary of the method: as §1

LCLC-103H = tested on: LCLC-103H
Summary of the method: as §1

NCI-H322M = tested on: NCI-H322M
Summary of the method: as §1

In the case of CCN(CC)CCCCNc1ncc2cc(-c3cc(OC)cc(OC)c3)c(NC(=O)NC(C)(C)C)nc2n1 + O=C(c1cc(Cc2n[nH]c(=O)c3ccccc23)ccc1F)N1CCN(C(=O)C2CC2)CC1 [Olaparib] (partner 8 µM), the relative viability (NCI-H727; first compound 0.01 µM) is reported as 0.674, the relative viability (NCI-H727; first compound 0.03162 µM) is reported as 0.504 and the relative viability (NCI-H727; first compound 0.1 µM) is reported as 0.671. It also gave a relative viability (NCI-H727; first compound 0.3162 µM) of 0.585, a relative viability (NCI-H727; first compound 1 µM) of 0.741 and a relative viability (NCI-H1944; first compound 0.01 µM) of 0.363. The relative viability (NCI-H1944; first compound 0.03162 µM) was 0.415, the relative viability (NCI-H1944; first compound 0.1 µM) was 0.474 and the relative viability (NCI-H1944; first compound 0.3162 µM) was 0.428. For the same molecule, the relative viability (NCI-H1944; first compound 1 µM) was 0.394, the relative viability (NCI-H2087; first compound 0.01 µM) was 0.581 and the relative viability (NCI-H2087; first compound 0.03162 µM) was 0.599. It also gave a relative viability (NCI-H2087; first compound 0.1 µM) of 0.71, a relative viability (NCI-H2087; first compound 0.3162 µM) of 0.735 and a relative viability (NCI-H2087; first compound 1 µM) of 0.476. It also gave a relative viability (NCI-H1792; first compound 0.01 µM) of 0.547, a relative viability (NCI-H1792; first compound 0.03162 µM) of 0.475 and a relative viability (NCI-H1792; first compound 0.1 µM) of 0.668. The relative viability (NCI-H1792; first compound 0.3162 µM) was 0.77, the relative viability (NCI-H1792; first compound 1 µM) was 0.317 and the relative viability (BEN; first compound 0.01 µM) was 1.18. The relative viability (BEN; first compound 0.03162 µM) was 0.97, the relative viability (BEN; first compound 0.1 µM) was 1.01 and the relative viability (BEN; first compound 0.3162 µM) was 1.17. For the same molecule, the relative viability (BEN; first compound 1 µM) was 1.01, the relative viability (SK-LU-1; first compound 0.01 µM) was 0.447 and the relative viability (SK-LU-1; first compound 0.03162 µM) was 0.404. For the same molecule, the relative viability (SK-LU-1; first compound 0.1 µM) was 0.477, the relative viability (SK-LU-1; first compound 0.3162 µM) was 0.472 and the relative viability (SK-LU-1; first compound 1 µM) was 0.433. For the same molecule, the relative viability (RERF-LC-KJ; first compound 0.01 µM) was 1.01, the relative viability (RERF-LC-KJ; first compound 0.03162 µM) was 0.92 and the relative viability (RERF-LC-KJ; first compound 0.1 µM) was 1.12. For the same molecule, the relative viability (RERF-LC-KJ; first compound 0.3162 µM) was 1.05, the relative viability (RERF-LC-KJ; first compound 1 µM) was 0.963 and the relative viability (NCI-H647; first compound 0.01 µM) was 0.476. The relative viability (NCI-H647; first compound 0.03162 µM) was 0.732, the relative viability (NCI-H647; first compound 0.1 µM) was 0.674 and the relative viability (NCI-H647; first compound 0.3162 µM) was 0.563. It also gave a relative viability (NCI-H647; first compound 1 µM) of 0.393, a relative viability (CAL-12T; first compound 0.01 µM) of 0.678 and a relative viability (CAL-12T; first compound 0.03162 µM) of 0.78. It also gave a relative viability (CAL-12T; first compound 0.1 µM) of 0.829, a relative viability (CAL-12T; first compound 0.3162 µM) of 0.845 and a relative viability (CAL-12T; first compound 1 µM) of 0.763. It also gave a relative viability (NCI-H1793; first compound 0.01 µM) of 0.676, a relative viability (NCI-H1793; first compound 0.03162 µM) of 0.839 and a relative viability (NCI-H1793; first compound 0.1 µM) of 1.23. It also gave a relative viability (NCI-H1793; first compound 0.3162 µM) of 0.926, a relative viability (NCI-H1793; first compound 1 µM) of 0.54 and a relative viability (NCI-H2405; first compound 0.01 µM) of 0.873. The relative viability (NCI-H2405; first compound 0.03162 µM) was 0.88, the relative viability (NCI-H2405; first compound 0.1 µM) was 1.03 and the relative viability (NCI-H2405; first compound 0.3162 µM) was 0.952. It also gave a relative viability (NCI-H2405; first compound 1 µM) of 0.928, a relative viability (HCC-827; first compound 0.01 µM) of 0.611 and a relative viability (HCC-827; first compound 0.03162 µM) of 0.668. The relative viability (HCC-827; first compound 0.1 µM) was 0.702, the relative viability (HCC-827; first compound 0.3162 µM) was 0.682 and the relative viability (HCC-827; first compound 1 µM) was 0.735. The relative viability (NCI-H2228; first compound 0.01 µM) was 0.799, the relative viability (NCI-H2228; first compound 0.03162 µM) was 0.8 and the relative viability (NCI-H2228; first compound 0.1 µM) was 0.824. It also gave a relative viability (NCI-H2228; first compound 0.3162 µM) of 0.547, a relative viability (NCI-H2228; first compound 1 µM) of 0.571 and a relative viability (NCI-H1650; first compound 0.01 µM) of 0.815. For the same molecule, the relative viability (NCI-H1650; first compound 0.03162 µM) was 0.819, the relative viability (NCI-H1650; first compound 0.1 µM) was 0.822 and the relative viability (NCI-H1650; first compound 0.3162 µM) was 0.635. The relative viability (NCI-H1650; first compound 1 µM) was 0.676, the relative viability (NCI-H1437; first compound 0.01 µM) was 0.635 and the relative viability (NCI-H1437; first compound 0.03162 µM) was 0.666. It also gave a relative viability (NCI-H1437; first compound 0.1 µM) of 0.681, a relative viability (NCI-H1437; first compound 0.3162 µM) of 0.642 and a relative viability (NCI-H1437; first compound 1 µM) of 0.614. It also gave a relative viability (LXF-289; first compound 0.01 µM) of 1.14, a relative viability (LXF-289; first compound 0.03162 µM) of 1.11 and a relative viability (LXF-289; first compound 0.1 µM) of 1.25. For the same molecule, the relative viability (LXF-289; first compound 0.3162 µM) was 1.1, the relative viability (LXF-289; first compound 1 µM) was 1.08 and the relative viability (NCI-H1395; first compound 0.01 µM) was 0.46. It also gave a relative viability (NCI-H1395; first compound 0.03162 µM) of 0.467, a relative viability (NCI-H1395; first compound 0.1 µM) of 0.478 and a relative viability (NCI-H1395; first compound 0.3162 µM) of 0.497. The relative viability (NCI-H1395; first compound 1 µM) was 0.431, the relative viability (LCLC-97TM1; first compound 0.01 µM) was 0.413 and the relative viability (LCLC-97TM1; first compound 0.03162 µM) was 0.399. For the same molecule, the relative viability (LCLC-97TM1; first compound 0.1 µM) was 0.479, the relative viability (LCLC-97TM1; first compound 0.3162 µM) was 0.512 and the relative viability (LCLC-97TM1; first compound 1 µM) was 0.222. It also gave a relative viability (201T; first compound 0.01 µM) of 0.913, a relative viability (201T; first compound 0.03162 µM) of 0.807 and a relative viability (201T; first compound 0.1 µM) of 0.924. The relative viability (201T; first compound 0.3162 µM) was 0.853, the relative viability (201T; first compound 1 µM) was 0.719 and the relative viability (NCI-H3122; first compound 0.01 µM) was 0.642. The relative viability (NCI-H3122; first compound 0.03162 µM) was 0.69, the relative viability (NCI-H3122; first compound 0.1 µM) was 0.68 and the relative viability (NCI-H3122; first compound 0.3162 µM) was 0.647. It also gave a relative viability (NCI-H3122; first compound 1 µM) of 0.71, a relative viability (LCLC-103H; first compound 0.01 µM) of 0.813 and a relative viability (LCLC-103H; first compound 0.03162 µM) of 0.788. For the same molecule, the relative viability (LCLC-103H; first compound 0.1 µM) was 0.888, the relative viability (LCLC-103H; first compound 0.3162 µM) was 0.833 and the relative viability (LCLC-103H; first compound 1 µM) was 0.567. The relative viability (NCI-H322M; first compound 0.01 µM) was 0.784, the relative viability (NCI-H322M; first compound 0.03162 µM) was 0.638 and the relative viability (NCI-H322M; first compound 0.1 µM) was 0.745. It also gave a relative viability (NCI-H322M; first compound 0.3162 µM) of 0.82 and a relative viability (NCI-H322M; first compound 1 µM) of 0.76.
